In brackets after ≈: the same amount, converted by molar mass.
Assays:
C. albicans (ATCC 24433) = test: Anticandidal activity, EUCAST EDef 7.1 broth dilution with resazurin; type: cell-based; conditions: Candida albicans, ATCC24433, RPMI pH 7, 24 h
Procedure: (§1) Synthesized compounds (3a–3o) were evaluated for anticandidal activity against C. albicans (ATCC 24433), C. krusei (ATCC 6258), C. parapsilosis (ATCC 22019), and C. glabrata (ATCC 90030). MIC50 values were determined via fluorometric measurements, using resazurin solution [24, 25]. Ketoconazole and fluconazole were used as a standard drug in the activity test.
(§2) Microbiological studies were performed according to the EUCAST definitive (EDef 7.1) method for C. albicans (ATCC 24433), C. krusei (ATCC 6258), C. parapsilosis (ATCC 22019), and C. glabrata (ATCC 90030). Fluconazole and ketoconazole were used as control drugs. Two MIC readings were carried out for each chemical agent. The yeasts were maintained in RPMI after overnight incubation at 37 °C. The inocula of test microorganisms was adjusted to match the turbidity of a MacFarland 0.5 standard tube as determined with a spectrophotometer, and the final inoculum size was 0.5–2.5 × 10^5 cfu/mL for the antifungal assay. Testing was carried out in RPMI at pH = 7, and the two-fold serial dilutions technique was applied. The last well on the microplates containing only inoculated broth was kept as a control, and the last well with no growth of microorganism was recorded to represent the MIC50 expressed in μg/mL. For the antifungal assays, the compounds were dissolved in DMSO. Further dilutions of the compounds and standard drugs in the test medium were prepared at the required quantities of 800, 400, 200, 100, 50, 25, 12.5, 6.25, 3.125, 1.5625, and 0.78 μg/mL concentrations RPMI. The completed plates were incubated for 24 h. At the end of the incubation, resazurin (20 µg/mL) was added into each well to control the growth in the wells. Completed plates were incubated for 2 h. MIC50 values were determined using a microplate reader at […].

[1] = test system: C. parapsilosis (ATCC 22019); test: as above; type: cell-based; conditions: Lodderomyces parapsilosis, ATCC22019, RPMI pH 7, 24 h
Procedure: as §1, §2

C. krusei (ATCC 6258) = test: as above; type: cell-based; conditions: Pichia kudriavzevii, ATCC6258, RPMI pH 7, 24 h
Procedure: as §1, §2

C. glabrata (ATCC 90030) = test: as above; type: cell-based; conditions: Nakaseomyces glabratus, ATCC90030, RPMI pH 7, 24 h
Procedure: as §1, §2

[2] = test system: NIH/3T3 mouse embryonic fibroblast cell line; test: MTT cytotoxicity test; type: cell-based; conditions: NIH3T3, cytotoxic activity, NIH/3T3 cell line
Procedure: The main cause of failure in all stages of the new drug development process is toxicity. Early identification of toxicities of drug candidates is very important in terms of drug development studies. […] Cytotoxicity of selected compounds (3a–3d), displaying strong anticandidal activity and good predicted pharmacokinetics, was determined against NIH/3T3 mouse embryonic fibroblast cell lines (ATCC CRL1658).
Cytotoxicity was tested using the NIH/3T3 mouse embryonic fibroblast cell line (ATCC® CRL-1658™, London, UK). NIH/3T3 cells were incubated according to the supplier’s recommendations. NIH/3T3 cells were seeded at 1 × 10^4 cells into each well of the 96-well plates. The MTT assay was performed as previously described. The compounds were tested between 800 and 0.78 µg/mL concentrations. Inhibition % was calculated for each concentration according to the formula below, and IC50 values were determined by plotting a dose–response curve of inhibition % versus compound concentrations tested.
% inhibition = 100 − (mean sample × 100/mean solvent).

[3] = test system: ergosterol biosynthesis in C. krusei; test: Quantification of ergosterol level by LC-MS-MS; type: cell-based; conditions: Pichia kudriavzevii, mean ± SD, quadruplicate
Text: Sterols are neutral lipids of eukaryotic cells, among which ergosterol is the main constituent of fungal membranes. Ergosterol has biological functions such as membrane fluidity, regulation, activity and distribution of integral membrane proteins, and control of the cell cycle. The critical role of sterols in maintenance of cell membranes make ergosterol and its biosynthetic pathway essential for fungal growth, and a primary target for antifungal drugs to treat fungal infections. From this point of view, we performed an LCMSMS (Shimadzu LCMS 8040, Kyoto, Japan) method for quantitative determination of ergosterol content of C. krusei as reported in our recent study. Compounds 3a–3d, displaying the best anticandidal activity and low cytotoxic effect, and reference agents ketoconazole and fluconazole were tested at concentrations of 0.78–3.12 µg/mL. Ergosterol standard (Product No.: 45480, Sigma-Aldrich, Darmstadt, Germany) was used for the quantification of ergostrerol in samples, which were treated with reference agents and Compounds 3a–3d. Ergosterol quantity of the negative control was considered as 100%. Quadruplicate analyses were performed for all concentrations and the obtained data were expressed as mean ± standard deviation (SD) (Table 2).
Extraction of total sterols from C. krusei was performed as recorded by Breivik and Owades. Quantification of ergosterol level in this extract was carried out in accordance with our recently described method.

Row | SMILES | MIC50 (C. albicans (ATCC 24433)) | MIC50 [1] | MIC50 (C. krusei (ATCC 6258)) | MIC50 (C. glabrata (ATCC 90030)) | melting point | IC50 [2] | inhibition at 0.78 µg/mL [3] | inhibition at 1.56 µg/mL [3] | inhibition at 3.12 µg/mL [3]
1 | Cc1ccc(Oc2ccc(C=CC(=O)c3ccc(-n4ccnc4)cc3)cc2)cc1 [Compound 3a, 1-(4-(1H-Imidazol-1-yl)phenyl)-3-(4-(p-tolyloxy)phenyl)prop-2-en-1-one] | 3.12 µg/mL (≈ 8.21 µM) | 0.78 µg/mL (≈ 2.05 µM) | 0.78 µg/mL (≈ 2.05 µM) | 3.12 µg/mL (≈ 8.21 µM) | 146 to 148 °C | > 500 µg/mL | 66.2 ± 2.23% | 79.5 ± 3.16% | 86.5 ± 4.77%
2 | Cc1ccc(Sc2ccc(C=CC(=O)c3ccc(-n4ccnc4)cc3)cc2)cc1 [Compound 3b, 1-(4-(1H-Imidazol-1-yl)phenyl)-3-(4-(p-tolylthio)phenyl)prop-2-en-1-one] | 3.12 µg/mL (≈ 7.88 µM) | 0.78 µg/mL (≈ 1.97 µM) | 0.78 µg/mL (≈ 1.97 µM) | 3.12 µg/mL (≈ 7.88 µM) | 168 to 169 °C | > 500 µg/mL | 68.6 ± 1.98% | 81.6 ± 4.07% | 83.5 ± 3.18%
3 | COc1ccc(Oc2ccc(C=CC(=O)c3ccc(-n4ccnc4)cc3)cc2)cc1 [Compound 3c, 1-(4-(1H-Imidazol-1-yl)phenyl)-3-(4-(4-methoxyphenoxy)phenyl)prop-2-en-1-one] | 1.56 µg/mL (≈ 3.93 µM) | 0.78 µg/mL (≈ 1.97 µM) | 0.78 µg/mL (≈ 1.97 µM) | 0.78 µg/mL (≈ 1.97 µM) | 168 to 170 °C | 436 ± 1.03 µg/mL (≈ 1100 µM) | 71.1 ± 4.9% | 78.2 ± 2.7% | 84.3 ± 4.65%
4 | COc1ccc(Sc2ccc(C=CC(=O)c3ccc(-n4ccnc4)cc3)cc2)cc1 [Compound 3d, 1-(4-(1H-Imidazol-1-yl)phenyl)-3-(4-((4-methoxyphenyl)thio)phenyl)prop-2-en-1-one] | 1.56 µg/mL (≈ 3.78 µM) | 3.12 µg/mL (≈ 7.58 µM) | 1.56 µg/mL (≈ 3.78 µM) | 0.78 µg/mL (≈ 1.89 µM) | 177 to 179 °C | 388 ± 20.2 µg/mL (≈ 940 µM) | 52.5 ± 1.83% | 67.1 ± 2.7% | 74.1 ± 2.21%
5 | O=C(C=Cc1ccc(N2CCCC2)cc1)c1ccc(-n2ccnc2)cc1 [Compound 3e, 1-(4-(1H-Imidazol-1-yl)phenyl)-3-(4-(pyrrolidin-1-yl)phenyl)prop-2-en-1-one] | 50 µg/mL (≈ 146 µM) | 12.5 µg/mL (≈ 36.4 µM) | 12.5 µg/mL (≈ 36.4 µM) | 12.5 µg/mL (≈ 36.4 µM) | 186 to 188 °C | – | – | – | –
6 | O=C(C=Cc1ccc(N2CCOCC2)cc1)c1ccc(-n2ccnc2)cc1 [Compound 3f, 1-(4-(1H-Imidazol-1-yl)phenyl)-3-(4-morpholinophenyl)prop-2-en-1-one] | 50 µg/mL (≈ 139 µM) | 12.5 µg/mL (≈ 34.8 µM) | 12.5 µg/mL (≈ 34.8 µM) | 12.5 µg/mL (≈ 34.8 µM) | 214 to 215 °C | – | – | – | –
7 | O=C(C=Cc1ccc(N2CCCCC2)cc1)c1ccc(-n2ccnc2)cc1 [Compound 3g, 1-(4-(1H-Imidazol-1-yl)phenyl)-3-(4-(piperidin-1-yl)phenyl)prop-2-en-1-one] | 50 µg/mL (≈ 140 µM) | 12.5 µg/mL (≈ 35 µM) | 25 µg/mL (≈ 69.9 µM) | 12.5 µg/mL (≈ 35 µM) | 198 to 199 °C | – | – | – | –
8 | CC1CCCN(c2ccc(C=CC(=O)c3ccc(-n4ccnc4)cc3)cc2)C1 (stereo not drawn) [Compound 3h, 1-(4-(1H-Imidazol-1-yl)phenyl)-3-(4-(3-methylpiperidin-1-yl)phenyl)prop-2-en-1-one] | 50 µg/mL (≈ 135 µM) | 12.5 µg/mL (≈ 33.6 µM) | 25 µg/mL (≈ 67.3 µM) | 12.5 µg/mL (≈ 33.6 µM) | 163 to 165 °C | – | – | – | –
9 | CC1CCN(c2ccc(C=CC(=O)c3ccc(-n4ccnc4)cc3)cc2)CC1 [Compound 3i, 1-(4-(1H-Imidazol-1-yl)phenyl)-3-(4-(4-methylpiperidin-1-yl)phenyl)prop-2-en-1-one] | 50 µg/mL (≈ 135 µM) | 12.5 µg/mL (≈ 33.6 µM) | 12.5 µg/mL (≈ 33.6 µM) | 12.5 µg/mL (≈ 33.6 µM) | 189 to 191 °C | – | – | – | –
10 | CC1CC(C)CN(c2ccc(C=CC(=O)c3ccc(-n4ccnc4)cc3)cc2)C1 (stereo not drawn) [Compound 3j, 1-(4-(1H-Imidazol-1-yl)phenyl)-3-(4-(3,5-dimethylpiperidin-1-yl)phenyl)prop-2-en-1-one] | 50 µg/mL (≈ 130 µM) | 25 µg/mL (≈ 64.8 µM) | 25 µg/mL (≈ 64.8 µM) | 12.5 µg/mL (≈ 32.4 µM) | 160 to 161 °C | – | – | – | –
11 | O=C(C=Cc1ccc(N2CCC(Cc3ccccc3)CC2)cc1)c1ccc(-n2ccnc2)cc1 [Compound 3k, 1-(4-(1H-Imidazol-1-yl)phenyl)-3-(4-(4-benzylpiperidin-1-yl)phenyl)prop-2-en-1-one] | 50 µg/mL (≈ 112 µM) | 12.5 µg/mL (≈ 27.9 µM) | 25 µg/mL (≈ 55.9 µM) | 25 µg/mL (≈ 55.9 µM) | 178 to 180 °C | – | – | – | –
12 | CN1CCN(c2ccc(C=CC(=O)c3ccc(-n4ccnc4)cc3)cc2)CC1 [Compound 3l, 1-(4-(1H-Imidazol-1-yl)phenyl)-3-(4-(4-methylpiperazin-1-yl)phenyl)prop-2-en-1-one] | 50 µg/mL (≈ 134 µM) | 12.5 µg/mL (≈ 33.6 µM) | 25 µg/mL (≈ 67.1 µM) | 12.5 µg/mL (≈ 33.6 µM) | 205 to 207 °C | – | – | – | –

Continued, in another order:

Row | MIC50 (C. albicans (ATCC 24433)) | MIC50 [1] | MIC50 (C. krusei (ATCC 6258)) | MIC50 (C. glabrata (ATCC 90030)) | melting point | SMILES | IC50 [2] | inhibition at 0.78 µg/mL [3] | inhibition at 1.56 µg/mL [3] | inhibition at 3.12 µg/mL [3]
13 | 50 µg/mL (≈ 129 µM) | 25 µg/mL (≈ 64.7 µM) | 12.5 µg/mL (≈ 32.3 µM) | 12.5 µg/mL (≈ 32.3 µM) | 188 to 189 °C | CCN1CCN(c2ccc(C=CC(=O)c3ccc(-n4ccnc4)cc3)cc2)CC1 [Compound 3m, 1-(4-(1H-Imidazol-1-yl)phenyl)-3-(4-(4-ethylpiperazin-1-yl)phenyl)prop-2-en-1-one] | – | – | – | –
14 | 50 µg/mL (≈ 116 µM) | 12.5 µg/mL (≈ 29.1 µM) | 12.5 µg/mL (≈ 29.1 µM) | 12.5 µg/mL (≈ 29.1 µM) | 146 to 149 °C | CN(C)CCN1CCN(c2ccc(C=CC(=O)c3ccc(-n4ccnc4)cc3)cc2)CC1 [Compound 3n, 1-(4-(1H-Imidazol-1-yl)phenyl)-3-(4-(4-(2-(dimethylamino)ethyl)piperazin-1-yl)phenyl)prop-2-en-1-one] | – | – | – | –
15 | 50 µg/mL (≈ 113 µM) | 12.5 µg/mL (≈ 28.2 µM) | 12.5 µg/mL (≈ 28.2 µM) | 12.5 µg/mL (≈ 28.2 µM) | 138 to 141 °C | CN(C)CCCN1CCN(c2ccc(C=CC(=O)c3ccc(-n4ccnc4)cc3)cc2)CC1 [Compound 3o, 1-(4-(1H-Imidazol-1-yl)phenyl)-3-(4-(4-(3-(dimethylamino)propyl)piperazin-1-yl)phenyl)prop-2-en-1-one] | – | – | – | –
16 | 0.78 µg/mL (≈ 2.55 µM) | 0.78 µg/mL (≈ 2.55 µM) | 1.56 µg/mL (≈ 5.09 µM) | 1.56 µg/mL (≈ 5.09 µM) | – | OC(Cn1cncn1)(Cn1cncn1)c1ccc(F)cc1F [Fluconazole, reference compound] | – | 61.7 ± 1.7% | 70.1 ± 3.22% | 82.1 ± 4.45%
17 | 0.78 µg/mL (≈ 1.47 µM) | 1.56 µg/mL (≈ 2.94 µM) | 1.56 µg/mL (≈ 2.94 µM) | 1.56 µg/mL (≈ 2.94 µM) | – | CC(=O)N1CCN(c2ccc(OCC3COC(Cn4ccnc4)(c4ccc(Cl)cc4Cl)O3)cc2)CC1 (stereo not drawn) [Ketoconazole, reference compound] | – | 61 ± 2.94% | 73.1 ± 4.16% | 84.6 ± 3.01%

Source: paper PMC6017838, “Synthesis and Anticandidal Activity of New Imidazole-Chalcones” (Molecules : A Journal of Synthetic Chemistry and Natural …, 2018)
